These results are taken from US20120202840A1, “Use of Flubendazole and Vinca Alkaloids for Treatment of Hematological Diseases” (priority 2009, published 2012).

Each structure is given as a SMILES string. Like-named read-outs stand apart in the source and are kept apart here.

In data set [1] the test system is OCI-AML2 cells. Description: Cell cycle analysis (PI, flow cytometry), OCI-AML2. It counts as cell-based. To be noted: OCI-AML2, 1.0 μM, 24 h. The method, then:
(§1) OCI-AML2 cells (A) or PPC-1 cells (B) were incubated with 1.0 μM flubendazole or buffer control for 24 h. Cells were then stained with PI and the DNA content was measured by flow cytometry. A representative figure is shown.
(§2) Cell cycle analysis was performed as described by Mao et al^31. Briefly, OCI-AML2 or PPC-1 cells were harvested, washed with cold PBS and resuspended in PBS and cold absolute ethanol. Cells were then treated with 100 ng/mL of DNase-free RNase A (Invitrogen, Carlsbad, Calif.) at 37° C. for 30 min, washed with cold PBS, resuspended in PBS and incubated with 50 μg/mL of propidium iodine (PI) for 15 min at room temperature in the dark. DNA content was measured by flow cytometry (FACSCalibur, Becton Dickinson, Florida, USA) and analyzed with FlowJo software version 7.0 (TreeStar, Ashland, Oreg.).
On the technique in general: In flow cytometry, cells or beads pass a laser one at a time.

Data set [2] deals with CEM. Description: MTS cell growth and viability assay, CEM. The format is cell-based. To be noted: Homo sapiens, CCRF-CEM, 3 replicates. The method, then:
(§3) Leukemia (U937, MDAY, CEM, CEM-VBL) and solid tumor cell lines (PPC-1, HeLa) were cultured in RPMI 1640 medium. The epidermoid carcinoma cell lines KB-3-1 and KB-4.0-HTI^23 were grown in Dulbecco's Modified Eagle Medium. The lung carcinoma cell lines A549 and A549.EpoB40 were grown in RPMI with the latter supplemented with 20% fetal calf serum (FCS), and 40 nM epothilone B.^24 Leukemia cell lines OCI-AML2, CEM, and NB4 and all the myeloma cell lines (OPM2, KMS11, JJN3 LP1, H929, L1, KMS12, KSM18 and OCI My5) were maintained in Iscove's Modified Dulbecco's Medium (IMDM). TEX cells were maintained in IMDM, 15% FCS, 1% penicillin-streptomycin, 2 mM L-glutamine, 20 ng/mL SCF, 2 ng/mL IL-3. Unless otherwise noted, all media were supplemented with 10% FCS, 100 units/mL of streptomycin and 100 μg/mL of penicillin (all from Hyclone, Logan, Utah). Cells were incubated in a humidified air atmosphere containing 5% CO2 at 37° C.
Cell growth and viability was measured using the 3-(4,5-dimethylthiazol-2-yl)-5-(3-carboxymethoxyphenyl)-2-(4-sulfophenyl)-2H-tetrazolium inner salt (MTS) reduction assay (Promega, Madison, Wis.) according to the manufacture's protocol and as previously described^25. Cells were seeded in 96 well plates and treated with drug for 72 h. Optical density (OD) was measured at 490 nm.

Data set [3] concerns OPM2 cells. The method, then: (C) Sub-lethally irradiated SCID mice were injected subcutaneously with OPM2 cells (n=20; 10 per group). […] Tumor volume and body weight was measured over time. After 17 days, mice were sacrificed and tumors were excised, measured and weighted.
(§4) Sub-lethally irradiated SCID mice were injected subcutaneously in the left flank with leukemia OCI-AML2 (2.0×10^6) or myeloma OPM2 (1.0×10^7) cells. Mice were then randomly assigned to receive flubendazole (in 0.9% NaCl and 0.01% tween-80) or vehicle control (0.9% NaCl and 0.01% tween-80) intraperitoneally. […] Tumor volumes (tumor length×width^2×0.5236) were monitored daily using calipers. At the end of the experiment (16-18 days), mice were sacrificed, tumors excised and tumor volume and weight measured. All animal studies were carried out according to the regulations of the Canadian Council on Animal Care and with the approval of the local ethics review board.

For data set [4] the following is noted: rats, up to 150 mg/kg/day for 3 months; cited from earlier work.
For data set [5], the system named is PPC-1 cells. The data set is described as follows: Mitotic catastrophe (multinucleated cells). The format is cell-based. To be noted: 1.0 μM, 24 h. The method, then:
(C) PPC-1 cells were treated as above and stained with anti α-tubulin antibody and DAPI, as described in the materials and methods. Cells were imaged by confocal microscopy and the number of multi-nucleated cells was enumerated. Data represent the mean±SD percent of multinucleated cells from a representative experiment *p<0.0001 (unpaired t test). Insert: a representative multi-nucleated cell.
Mitotic catastrophe was measured by enumerating the number of multinucleated cells similar to the method previously described^26. Briefly, cells (5.0×10^5) were fixed and stained as described below. Fields containing 100 cells per treatment group were selected at random and visualized at 20×. A total of 700 cells were scored per treatment condition. A positive score for mitotic catastrophe was given when two or more distinct nuclear lobes were visualized within a single cell.

For data set [6] the following is noted: healthy volunteers, 1000 mg single oral dose, three days after administration; cited from earlier work.
The subject of data set [7] is OCI-AML2 cells. On the procedure:
Sub-lethally irradiated SCID mice were injected subcutaneously with OCI-AML2 cells (n=20; 10 per group). After implantation, mice were treated with 50 mg/kg flubendazole (A), 20 mg/kg flubendazole (B), or vehicle control by intraperitoneal injection daily. Tumor volume was measured over time. After 16 days (20 mg/kg dose) or 18 days (50 mg/kg dose), mice were sacrificed and tumors were excised, measured and weighted.
Sub-lethally irradiated SCID mice were injected subcutaneously with OCI-AML2 cells (n=40; 10 per group). […] After 16 (C) or 18 (D) days, mice were sacrificed and tumors were excised, measured and weighted. Data represent the mean±SD tumor weight.
as §4

In data set [8] the test system is OCI-AML2 cells. Description: MTS cell growth and viability assay, OCI-AML2. It counts as cell-based. To be noted: OCI-AML2, 72 h, MTS assay. (Tetrazolium assays rely on reduction of a dye to a coloured formazan, in cell work by metabolically active cells.)
Protocol: (A) OCI-AML2 cells were treated for 72 h with increasing concentrations of benzimidazoles. After incubation, cell growth and viability was measured by the MTS assay. Data represent the mean percentage of viable cells ±SD from a representative experiment.
Data set [9] has as its system A549.EpoB40. Description: MTS assay, A549.EpoB40 (β-tubulin mutant). The format is cell-based. The method, then:
Next, whether microtubule inhibition was functionally important for flubendazole's cytotoxicity was determined.
as §3
Cell growth and viability was measured using the 3-(4,5-dimethylthiazol-2-yl)-5-(3-carboxymethoxyphenyl)-2-(4-sulfophenyl)-2H-tetrazolium inner salt (MTS) reduction assay (Promega, Madison, Wis.) according to the manufacture's protocol and as previously described^25. […] Optical density (OD) was measured at 490 nm.

The conditions of data set [10]: sheep, cited from earlier work.
Data set [11] deals with PPC-1 cells. Description: Cell cycle analysis (PI, flow cytometry), PPC-1. The format is cell-based. To be noted: PPC-1, 1.0 μM, 24 h. The method, then:
as §1, §2

[12] abbreviates: OPM2 xenograft, 50 mg/kg daily intraperitoneally for 17 days, vs vehicle, p<0.05.
[13] abbreviates: OCI-AML2 xenograft, 20 or 50 mg/kg daily intraperitoneally, vs vehicle, p<0.0001.
[14] abbreviates: single dose of 5 mg/kg intravenously.

In general, IC50 refers to the concentration that gives 50% inhibition. Low readings indicate greater potency, high ones weaker potency. For `COC(=O)Nc1nc2ccc(C(=O)c3ccc(F)cc3)cc2[nH]1` [flubendazole], the cell cycle result in data set [1] and in data set [11] was “arrested cells in the G2 phase” each time. The IC50 was determined as 1900 ± 900 nM in data set [2] and 800 ± 200 nM in data set [9] (A549.EpoB40, MTS assay, 3 replicates). For the same compound, the tumor growth result in [3] (setting [12]) and in [7] (setting [13]) was “significantly delayed tumor growth” throughout. Also, the tumor weights entry in [3] (setting [12]) and in [7] (setting [13]) was “reduced tumor weights” in each case. In addition, the “weight loss, behavioral changes or gross organ toxicity” value in [3] (mouse, in vivo) is “no evidence of weight loss, behavioral changes or gross organ toxicity”; in data set [7] (mouse, in vivo), “no evidence of weight loss, behavioral changes or gross organ toxicity”. The toxicity entry in [4] was “No toxicity was noted”; in data set [10] (setting [14]), “no toxicity was observed”. Moreover, the “number of multi-nucleated cells” value in data set [5] is reported as “increased the number of multi-nucleated cells”. For the same compound, in data set [6], the “unchanged drug detected in the feces” value is 77%. For the same compound, in data set [6], the “unchanged drug detected in the urine” value was “less than 0.1%”. In addition, the “rank of potency in panel of 8 benzimidazoles” value in data set [8] is “most potent”. The “IC50 lower in A549.EpoB40 than in A549 control cells” value in data set [9] (ratio of IC50 values of Table 1) is reported as 5 fold. Also, the estimated half life in data set [10] (after oral administration) is 6.5 h. Further, the “fraction of flubendazole absorbed” value in [10] (oral) is 18%. For the same compound, the area under the curve (AUC) in data set [10] (single dose of 5 mg/kg intravenously, over 36 hours) is 22 µM·h; in [10] (setting [14]) it was 6530 ng·h/mL.
